Measured values from ChEMBL document CHEMBL4507292 (2021).

Experiments:
[1] = molecular target: Serine/threonine-protein kinase tousled-like 1 (Homo sapiens) (UniProt Q9UKI8); conditions: Compound concentration 1000.0 nM
[2] = molecular target: Alpha-1A adrenergic receptor (Homo sapiens) (UniProt P35348); conditions: Compound concentration 10.0 uM
[3] = molecular target: T1, Alpha-2B adrenergic receptor (Homo sapiens) (UniProt P18089); conditions: Compound concentration 10.0 uM
T1 sequence (whole entry): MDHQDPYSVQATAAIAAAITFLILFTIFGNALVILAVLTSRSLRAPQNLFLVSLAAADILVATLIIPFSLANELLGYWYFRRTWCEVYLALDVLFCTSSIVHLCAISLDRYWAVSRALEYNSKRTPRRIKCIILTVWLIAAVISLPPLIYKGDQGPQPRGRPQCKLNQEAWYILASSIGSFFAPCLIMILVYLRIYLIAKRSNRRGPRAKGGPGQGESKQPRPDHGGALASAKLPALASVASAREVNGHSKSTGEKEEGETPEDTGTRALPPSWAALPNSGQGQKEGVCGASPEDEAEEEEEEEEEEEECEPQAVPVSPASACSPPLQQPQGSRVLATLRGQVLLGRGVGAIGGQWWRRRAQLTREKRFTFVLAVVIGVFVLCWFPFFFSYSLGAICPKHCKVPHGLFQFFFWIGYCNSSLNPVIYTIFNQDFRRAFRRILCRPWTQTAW

[4] = molecular target: Tyrosine-protein kinase JAK1 (Homo sapiens) (UniProt P23458); conditions: Compound concentration 1000.0 nM
[5] = molecular target: Mitogen-activated protein kinase kinase kinase kinase 3 (Homo sapiens) (UniProt Q8IVH8); conditions: Compound concentration 1000.0 nM
[6] = molecular target: Cyclin-dependent kinase 19 (Homo sapiens) (UniProt Q9BWU1); conditions: Compound concentration 1000.0 nM
[7] = molecular target: Ephrin type-A receptor 2 (Homo sapiens) (UniProt P29317); conditions: Compound concentration 1000.0 nM
[8] = molecular target: Serine/threonine-protein kinase 3 (Homo sapiens) (UniProt Q13188); conditions: Compound concentration 1000.0 nM
[9] = tested on: Receptor-type tyrosine-protein kinase FLT3 (Homo sapiens), P36888 [D835V]; conditions: Compound concentration 1000.0 nM
[10] = tested on: Fibroblast growth factor receptor 3 (Homo sapiens), P22607 [G697C]; conditions: Compound concentration 1000.0 nM
[11] = molecular target: Interleukin-1 receptor-associated kinase 1 (Homo sapiens) (UniProt P51617); conditions: Compound concentration 1000.0 nM
[12] = molecular target: Cyclin-dependent kinase 7 (Homo sapiens) (UniProt P50613); conditions: Compound concentration 1000.0 nM
[13] = molecular target: Tyrosine-protein kinase ITK/TSK (Homo sapiens) (UniProt Q08881); conditions: Compound concentration 1000.0 nM
[14] = molecular target: Sodium-dependent noradrenaline transporter (Homo sapiens, UniProt P23975); conditions: Compound concentration 10.0 uM
[15] = molecular target: Cyclin-dependent kinase 17 (Homo sapiens) (UniProt Q00537); conditions: Compound concentration 1000.0 nM
[16] = molecular target: Mitogen-activated protein kinase kinase kinase 13 (Homo sapiens) (UniProt O43283); conditions: Compound concentration 1000.0 nM
[17] = molecular target: Bone morphogenetic protein receptor type-1A (Homo sapiens) (UniProt P36894); conditions: Compound concentration 1000.0 nM
[18] = molecular target: Serine/threonine-protein kinase PknB (Mycobacterium tuberculosis) (UniProt P9WI81); conditions: Compound concentration 1000.0 nM
[19] = molecular target: MAP/microtubule affinity-regulating kinase 4 (Homo sapiens) (UniProt Q96L34); conditions: Compound concentration 1000.0 nM
[20] = molecular target: Serine/threonine-protein kinase RIO3 (Homo sapiens) (UniProt O14730); conditions: Compound concentration 1000.0 nM
[21] = molecular target: Calcium/calmodulin-dependent protein kinase type 1D (Homo sapiens) (UniProt Q8IU85); conditions: Compound concentration 1000.0 nM
[22] = molecular target: Casein kinase I isoform alpha (Homo sapiens) (UniProt P48729); conditions: Compound concentration 1000.0 nM
[23] = molecular target: GABA-A receptor; anion channel (Rattus norvegicus) (UniProt O09028+P15431+P18506+P18508+P19969+P20236+P23574+P23576+P28471+P28473+P30191+P62813+P63079+P63138+Q91ZM7+Q9ES14); conditions: Compound concentration 10.0 uM
[24] = molecular target: Ephrin type-A receptor 5 (Homo sapiens) (UniProt P54756); conditions: Compound concentration 1000.0 nM
[25] = molecular target: Uncharacterized serine/threonine-protein kinase SBK3 (Homo sapiens) (UniProt P0C264); conditions: Compound concentration 1000.0 nM
[26] = molecular target: Beta-2 adrenergic receptor (Homo sapiens) (UniProt P07550); conditions: Compound concentration 10.0 uM
[27] = molecular target: Dual serine/threonine and tyrosine protein kinase (Homo sapiens) (UniProt Q6XUX3); conditions: Compound concentration 1000.0 nM
[28] = molecular target: Muscarinic acetylcholine receptor M3 (Homo sapiens) (UniProt P20309); conditions: Compound concentration 10.0 uM
[29] = molecular target: Phosphorylase b kinase gamma catalytic chain, skeletal muscle/heart isoform (Homo sapiens) (UniProt Q16816); conditions: Compound concentration 1000.0 nM
[30] = molecular target: Hepatocyte growth factor receptor (Homo sapiens) (UniProt P08581); conditions: Compound concentration 1000.0 nM
[31] = molecular target: Histamine H3 receptor (Homo sapiens) (UniProt Q9Y5N1); conditions: Compound concentration 10.0 uM
[32] = molecular target: Vascular endothelial growth factor receptor 1 (Homo sapiens) (UniProt P17948); conditions: Compound concentration 1000.0 nM
[33] = tested on: Epidermal growth factor receptor (Homo sapiens), P00533 [L861Q]; conditions: Compound concentration 1000.0 nM
[34] = molecular target: Atypical kinase COQ8A, mitochondrial (Homo sapiens) (UniProt Q8NI60); conditions: Compound concentration 1000.0 nM
[35] = tested on: Mast/stem cell growth factor receptor Kit (Homo sapiens), P10721 [V559D,T670I]; conditions: Compound concentration 1000.0 nM
[36] = molecular target: Peripheral plasma membrane protein CASK (Homo sapiens) (UniProt O14936); conditions: Compound concentration 1000.0 nM
[37] = molecular target: Ribosomal protein S6 kinase alpha-3 (Homo sapiens) (UniProt P51812); conditions: Compound concentration 1000.0 nM
[38] = molecular target: Non-receptor tyrosine-protein kinase TNK1 (Homo sapiens) (UniProt Q13470); conditions: Compound concentration 1000.0 nM

Serine/threonine-protein kinase PknB (Mycobacterium tuberculosis), sequence (P9WI81 whole entry): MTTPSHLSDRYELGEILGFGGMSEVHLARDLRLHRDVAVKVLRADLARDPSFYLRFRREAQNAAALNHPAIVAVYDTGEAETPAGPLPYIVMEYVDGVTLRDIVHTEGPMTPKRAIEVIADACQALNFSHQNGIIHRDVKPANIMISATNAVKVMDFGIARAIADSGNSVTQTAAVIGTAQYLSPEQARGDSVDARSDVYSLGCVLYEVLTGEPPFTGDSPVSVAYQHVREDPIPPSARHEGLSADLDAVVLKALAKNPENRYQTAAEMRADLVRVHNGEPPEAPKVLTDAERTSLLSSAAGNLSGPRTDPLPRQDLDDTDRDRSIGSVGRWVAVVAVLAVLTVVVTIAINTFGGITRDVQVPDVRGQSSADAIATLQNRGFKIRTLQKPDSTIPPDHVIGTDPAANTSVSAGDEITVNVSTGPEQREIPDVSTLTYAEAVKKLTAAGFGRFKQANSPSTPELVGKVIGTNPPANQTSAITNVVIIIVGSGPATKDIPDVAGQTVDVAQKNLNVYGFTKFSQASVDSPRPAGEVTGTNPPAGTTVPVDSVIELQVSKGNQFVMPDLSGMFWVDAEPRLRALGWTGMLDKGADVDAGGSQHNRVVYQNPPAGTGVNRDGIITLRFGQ
Atypical kinase COQ8A, mitochondrial (Homo sapiens), sequence (Q8NI60 163-647 limits assumed): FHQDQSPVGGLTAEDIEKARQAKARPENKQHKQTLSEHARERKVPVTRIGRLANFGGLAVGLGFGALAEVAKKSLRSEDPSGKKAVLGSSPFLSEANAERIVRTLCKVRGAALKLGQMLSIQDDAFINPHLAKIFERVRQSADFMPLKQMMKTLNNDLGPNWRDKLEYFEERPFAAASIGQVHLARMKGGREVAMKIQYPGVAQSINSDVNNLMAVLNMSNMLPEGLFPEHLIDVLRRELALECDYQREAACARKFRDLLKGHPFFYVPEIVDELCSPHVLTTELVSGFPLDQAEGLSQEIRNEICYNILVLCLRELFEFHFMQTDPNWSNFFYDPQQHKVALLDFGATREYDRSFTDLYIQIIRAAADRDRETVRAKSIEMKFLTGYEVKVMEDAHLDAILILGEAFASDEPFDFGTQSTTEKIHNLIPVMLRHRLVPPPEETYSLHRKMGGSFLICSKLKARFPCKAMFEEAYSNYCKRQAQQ
Mast/stem cell growth factor receptor Kit (Homo sapiens), P10721 [V559D,T670I], sequence (P10721 whole entry V559D/T670I): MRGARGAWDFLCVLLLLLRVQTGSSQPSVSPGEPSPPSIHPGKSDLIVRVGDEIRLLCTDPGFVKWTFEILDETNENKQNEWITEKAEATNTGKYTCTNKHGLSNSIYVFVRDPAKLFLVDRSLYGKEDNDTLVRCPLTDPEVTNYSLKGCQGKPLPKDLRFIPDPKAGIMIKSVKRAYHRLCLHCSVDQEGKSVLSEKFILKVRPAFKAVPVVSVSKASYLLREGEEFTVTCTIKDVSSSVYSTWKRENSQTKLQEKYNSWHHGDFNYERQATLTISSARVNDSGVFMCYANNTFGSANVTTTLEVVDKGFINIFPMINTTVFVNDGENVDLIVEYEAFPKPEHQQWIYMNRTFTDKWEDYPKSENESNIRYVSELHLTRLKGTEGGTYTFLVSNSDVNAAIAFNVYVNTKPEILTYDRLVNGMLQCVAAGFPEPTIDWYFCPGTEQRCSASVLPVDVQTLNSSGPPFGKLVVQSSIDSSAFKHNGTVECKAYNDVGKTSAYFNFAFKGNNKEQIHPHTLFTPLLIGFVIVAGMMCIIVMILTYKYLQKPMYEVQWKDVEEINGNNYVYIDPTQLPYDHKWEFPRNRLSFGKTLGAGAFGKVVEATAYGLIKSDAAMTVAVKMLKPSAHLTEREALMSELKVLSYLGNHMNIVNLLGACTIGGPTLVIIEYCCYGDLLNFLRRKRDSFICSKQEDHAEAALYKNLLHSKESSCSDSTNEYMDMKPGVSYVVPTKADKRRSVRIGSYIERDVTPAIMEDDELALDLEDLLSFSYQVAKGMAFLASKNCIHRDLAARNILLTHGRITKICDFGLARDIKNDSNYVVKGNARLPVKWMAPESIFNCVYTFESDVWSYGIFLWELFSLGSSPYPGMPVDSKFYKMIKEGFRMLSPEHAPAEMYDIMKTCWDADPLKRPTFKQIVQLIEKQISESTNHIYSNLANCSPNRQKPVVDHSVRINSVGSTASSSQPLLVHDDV
Calcium/calmodulin-dependent protein kinase type 1D (Homo sapiens), sequence (Q8IU85 whole entry, looked up, canonical isoform): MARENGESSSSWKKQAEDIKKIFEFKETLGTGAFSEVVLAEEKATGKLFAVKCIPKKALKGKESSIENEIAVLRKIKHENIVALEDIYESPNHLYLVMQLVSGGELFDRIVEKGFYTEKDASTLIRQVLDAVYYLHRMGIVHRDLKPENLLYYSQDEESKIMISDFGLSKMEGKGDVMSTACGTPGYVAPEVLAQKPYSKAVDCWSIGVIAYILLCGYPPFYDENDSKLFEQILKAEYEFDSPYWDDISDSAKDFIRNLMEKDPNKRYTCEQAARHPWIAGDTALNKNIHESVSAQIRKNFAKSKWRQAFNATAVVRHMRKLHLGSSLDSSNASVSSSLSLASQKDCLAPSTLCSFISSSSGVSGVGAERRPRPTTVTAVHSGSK
Serine/threonine-protein kinase 3 (Homo sapiens), sequence (Q13188 whole entry): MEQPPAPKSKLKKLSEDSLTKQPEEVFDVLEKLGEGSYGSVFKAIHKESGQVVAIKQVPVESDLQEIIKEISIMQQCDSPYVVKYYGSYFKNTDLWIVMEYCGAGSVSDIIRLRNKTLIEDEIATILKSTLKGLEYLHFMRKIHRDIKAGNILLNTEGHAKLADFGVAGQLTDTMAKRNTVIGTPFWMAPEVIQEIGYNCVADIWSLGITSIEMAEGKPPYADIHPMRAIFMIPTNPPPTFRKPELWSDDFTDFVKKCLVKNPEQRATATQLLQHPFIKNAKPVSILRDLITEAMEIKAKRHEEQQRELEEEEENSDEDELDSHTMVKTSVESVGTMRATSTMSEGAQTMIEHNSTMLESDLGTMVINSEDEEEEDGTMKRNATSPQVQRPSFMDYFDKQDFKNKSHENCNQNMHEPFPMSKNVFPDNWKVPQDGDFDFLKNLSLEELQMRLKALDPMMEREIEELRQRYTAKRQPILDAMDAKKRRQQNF
Vascular endothelial growth factor receptor 1 (Homo sapiens), sequence (P17948 whole entry): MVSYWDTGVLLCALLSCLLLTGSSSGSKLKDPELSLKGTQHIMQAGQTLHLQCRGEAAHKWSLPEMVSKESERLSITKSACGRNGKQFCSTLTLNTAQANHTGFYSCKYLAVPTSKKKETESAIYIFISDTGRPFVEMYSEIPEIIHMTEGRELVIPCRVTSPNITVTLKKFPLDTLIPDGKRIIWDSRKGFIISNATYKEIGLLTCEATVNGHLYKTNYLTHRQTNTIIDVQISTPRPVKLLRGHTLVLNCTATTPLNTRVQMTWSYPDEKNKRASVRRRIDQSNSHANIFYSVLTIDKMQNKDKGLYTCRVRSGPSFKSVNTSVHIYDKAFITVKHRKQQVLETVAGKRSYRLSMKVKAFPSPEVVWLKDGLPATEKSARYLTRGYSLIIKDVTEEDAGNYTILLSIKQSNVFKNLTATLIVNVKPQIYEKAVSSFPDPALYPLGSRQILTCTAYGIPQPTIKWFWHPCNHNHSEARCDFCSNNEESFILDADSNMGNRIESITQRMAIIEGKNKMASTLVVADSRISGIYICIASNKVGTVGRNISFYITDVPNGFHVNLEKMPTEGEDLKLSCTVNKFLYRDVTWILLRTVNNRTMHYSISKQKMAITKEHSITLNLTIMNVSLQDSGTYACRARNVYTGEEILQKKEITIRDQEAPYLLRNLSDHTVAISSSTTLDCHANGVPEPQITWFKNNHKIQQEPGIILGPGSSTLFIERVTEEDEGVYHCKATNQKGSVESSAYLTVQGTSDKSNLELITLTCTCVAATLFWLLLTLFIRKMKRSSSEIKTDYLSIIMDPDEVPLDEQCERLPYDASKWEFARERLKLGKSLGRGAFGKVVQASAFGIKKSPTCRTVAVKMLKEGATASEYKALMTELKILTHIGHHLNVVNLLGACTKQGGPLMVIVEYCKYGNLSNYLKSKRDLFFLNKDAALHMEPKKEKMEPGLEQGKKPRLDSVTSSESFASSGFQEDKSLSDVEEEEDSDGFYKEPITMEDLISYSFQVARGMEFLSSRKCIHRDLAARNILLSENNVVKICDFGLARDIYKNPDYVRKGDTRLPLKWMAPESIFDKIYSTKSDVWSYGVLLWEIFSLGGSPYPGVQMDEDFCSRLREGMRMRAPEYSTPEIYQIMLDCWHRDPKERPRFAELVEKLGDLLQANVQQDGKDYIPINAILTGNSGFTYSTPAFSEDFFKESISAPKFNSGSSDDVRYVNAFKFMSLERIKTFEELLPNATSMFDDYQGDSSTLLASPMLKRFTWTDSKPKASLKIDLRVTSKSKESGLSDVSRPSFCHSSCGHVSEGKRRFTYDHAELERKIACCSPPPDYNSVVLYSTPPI
Bone morphogenetic protein receptor type-1A (Homo sapiens), sequence (P36894 whole entry): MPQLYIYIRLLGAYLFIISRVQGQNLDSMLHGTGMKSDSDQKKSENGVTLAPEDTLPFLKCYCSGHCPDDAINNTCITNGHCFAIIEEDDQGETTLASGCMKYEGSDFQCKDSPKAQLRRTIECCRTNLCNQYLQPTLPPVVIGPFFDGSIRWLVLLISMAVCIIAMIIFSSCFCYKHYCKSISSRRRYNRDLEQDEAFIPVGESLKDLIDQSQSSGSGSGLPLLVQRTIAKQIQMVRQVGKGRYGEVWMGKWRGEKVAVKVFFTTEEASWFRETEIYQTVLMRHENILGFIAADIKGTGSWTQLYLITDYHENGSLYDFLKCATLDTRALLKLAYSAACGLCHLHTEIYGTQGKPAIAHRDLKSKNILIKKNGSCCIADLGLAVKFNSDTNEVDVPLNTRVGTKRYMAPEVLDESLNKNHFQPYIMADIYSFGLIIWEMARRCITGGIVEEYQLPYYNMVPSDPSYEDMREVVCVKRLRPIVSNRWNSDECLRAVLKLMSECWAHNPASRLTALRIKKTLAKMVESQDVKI

## Cc1c(C(=O)O)cc(-c2ccc(C3CCNCC3)cc2)c2ccc(-c3ccc(C(F)(F)F)cc3)cc12 [PPTN-NC]
[1]
  residual activity: 100%
[2]
  inhibition: 25.4%
[3]
  inhibition: 79%
[4]
  residual activity: 79%
[5]
  residual activity: 100%
[6]
  residual activity: 100%
[7]
  residual activity: 100%
[8]
  residual activity: 100%
[9]
  residual activity: 100%
[10]
  residual activity: 100%
[11]
  residual activity: 100%
[12]
  residual activity: 97%
[13]
  residual activity: 100%
[14]
  inhibition: 11.2%
[15]
  residual activity: 100%
[16]
  residual activity: 100%
[17]
  residual activity: 100%
[18]
  residual activity: 100%
[19]
  residual activity: 97%
[20]
  residual activity: 100%
[21]
  residual activity: 100%
[22]
  residual activity: 81%
[23]
  inhibition: 1.21%
[24]
  residual activity: 100%
[25]
  residual activity: 80%
[26]
  inhibition: 27.8%
[27]
  residual activity: 100%
[28]
  inhibition: 0.06%
[29]
  residual activity: 100%
[30]
  residual activity: 100%
[31]
  inhibition: 7.04%
[32]
  residual activity: 80%
[33]
  residual activity: 100%
[34]
  residual activity: 100%
[35]
  residual activity: 100%
[36]
  residual activity: 100%
[37]
  residual activity: 100%
[38]
  residual activity: 100%

## O=C(O)c1cc(-c2ccc(C3CCNCC3)cc2)c2ccc(-c3ccc(C(F)(F)F)cc3)cc2c1 [PPTN]
[1]
  residual activity: 100%
[2]
  inhibition: 46.7%
[3]
  inhibition: 85.4%
[4]
  residual activity: 87%
[5]
  residual activity: 100%
[6]
  residual activity: 97%
[7]
  residual activity: 100%
[8]
  residual activity: 100%
[9]
  residual activity: 100%
[10]
  residual activity: 100%
[11]
  residual activity: 100%
[12]
  residual activity: 82%
[13]
  residual activity: 100%
[14]
  inhibition: 23.6%
[15]
  residual activity: 100%
[16]
  residual activity: 100%
[17]
  residual activity: 100%
[18]
  residual activity: 100%
[19]
  residual activity: 100%
[20]
  residual activity: 100%
[21]
  residual activity: 100%
[22]
  residual activity: 83%
[23]
  inhibition: -3.98%
[24]
  residual activity: 97%
[25]
  residual activity: 75%
[26]
  inhibition: 38.9%
[27]
  residual activity: 100%
[28]
  inhibition: 9.47%
[29]
  residual activity: 100%
[30]
  residual activity: 100%
[31]
  inhibition: 0.03%
[32]
  residual activity: 86%
[33]
  residual activity: 100%
[34]
  residual activity: 100%
[35]
  residual activity: 100%
[36]
  residual activity: 100%
[37]
  residual activity: 100%
[38]
  residual activity: 100%
